According to patent US8252807B2, “Methods of inhibiting the interaction between S100 and the receptor for advanced glycation end-products” (Board of Regents, The University of Texas System, priority 2007, dated 2012):

Experiments:
[1] = target: T1, S100P binding with RAGE (Homo sapiens, UniProt P25815); assay: S100P binding with RAGE ELISA (sRAGE coated plate)
T1 construct: full-length human S100P cDNA (NM_005980) was cloned into the pTrcHis2 vector; His tag
T1 sequence (P25815 1-95): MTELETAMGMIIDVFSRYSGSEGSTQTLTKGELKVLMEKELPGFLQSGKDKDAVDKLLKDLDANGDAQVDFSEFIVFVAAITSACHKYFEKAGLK
Procedure: After removing un-bound S100P by washing with detergent, the bound S100P and RAGE complex was quantified by adding HRP labeled antibody against S100P. *, P=0.04 C5 μM versus cromolyn 5 μM. Two-tailed two-sample (unpaired) Student's t-tests were used to determine P values.

[2] = test system: NFκB activity in MPanc-96 cells; assay: S100P stimulated NFκB luciferase reporter, MPanc-96; format: cell-based, human
Procedure: MPanc-96 pancreatic cancer cell lines stably expressing an NFκB luciferase reporter were examined for the effects of S100P, cromolyn and C5. Cells were plated at 5.0×10^3 cells/well, treated for 5 hours with 100 nM of S100P, with or without cromolyn and C5 (1 μM), and activity of a luciferase gene driven by the NFkB promoter was analyzed. P=0.05 C5 versus cromolyn. Two-tailed two-sample (unpaired) Student's t-tests were used to determine P values.

[3] = test system: BxPC-3 cells; assay: BxPC-3 cell viability, 72 hours; format: cell-based
Procedure: BxPC-3 cells were plated at 1.0×10^3 cells/well and treated with 0 μM, 1 μM, 10 μM, and 100 μM of cromolyn or C5 alone or in combination with gemcitabine 1 μM and cell viability was analyzed after 72 hours. Two-tailed two-sample (unpaired) Student's t-tests were used to determine P values. […] BxPC-3 cells were plated at 1.0×10^3 cells/well and treated with either 100 μM of cromolyn or 1 μM C5 alone or in combination with gemcitabine (1 μM) and cell viability was analyzed after 72 hours.

[4] = test system: MPanc-96 cells; assay: MPanc-96 cell apoptosis by flow cytometry, 72 hours; format: cell-based, human; settings: 100 and 1000 nM, with or without gemcitabine 10 μM
Procedure: FIG. 11 compares the effects of cromolyn and C5 alone and in combination with gemcitabine on MPanc-96 cell apoptosis. MPanc-96 cells were treated with cromolyn or C5 (100 and 1000 nM) with (+) or without (−) gemcitabine (10 μM). Apoptosis was analyzed after 72 hours by flow cytometry.

[5] = target: S100B with RAGE (Homo sapiens, UniProt P04271); assay: S100B binding with RAGE ELISA (sRAGE coated plate)
Text: After removing un-bound S100B by washing with detergent, bound S100B and RAGE complex was quantified by adding HRP labeled antibody against S100B.

[6] = test system: Panc-1 cells; assay: Panc-1 cell growth (MTS); format: cell-based
Procedure: Panc-1 pancreatic adenocarcinoma cells (1.0×10^3 cells/well) were cultured in the presence or absence of S100P (100 nM) and with or without cromolyn (100 μM), and cell proliferation was analyzed at 24, 48, and 72 hours. Means and 95% confidence intervals of three independent experiments performed in triplicate are shown. *, P=0.001, S100P alone versus S100P+cromolyn.
Panc-1 cells were plated at 1.0×10^3 cells/well and treated with platelet-derived growth factor (10 ng/mL) with or without cromolyn (100 μM), and cell proliferation was analyzed after 48 hours. Means and 95% confidence intervals of three independent experiments performed in triplicate are shown. *, P=0.004 PDGF and P=0.022 cromolyn+PDGF versus control.
Growth of Panc-1 and BxPC3 pancreatic adenocarcinoma cells was analyzed using MTS reagent (Promega, Madison, Wis.) according to the manufacturer's directions. Purified S100P (100 nM final concentration) with or without cromolyn (100 μM final concentration) was added to Panc-1 cells. Only cromolyn (0-100 μM) was added to BxPC-3 cells, which express endogenous S100P. For both cell models, 1.0×10^3 cells/well were plated in 96-well culture dishes. Cells were treated with S100P, PDGF, or cromolyn, or a combination, followed immediately by treatment with either S100P or PDGF. MTS (20 μL per well) was added to cells at various times, and the mixture was incubated for 1 hour at 37° C. Samples were then read at 490 nm (as O.D. units) on a uQuant-Microplate Spectrophotometer (Bio-Tek Services Inc., Richmond, Va.). The assay was performed three times in triplicate.

[7] = test system: Panc-1 cells; assay: Matrigel invasion assay, Panc-1; format: cell-based; settings: S100P 100 nM alone, 24 hours
Procedure: FIGS. 2A-2D show the effect of cromolyn on pancreatic cancer cell invasion. Panc-1 and BxPC-3 cells were plated in Bio-coat matrigel and control chambers and cultured in serum-free culture media. After 24 hours non-invaded cells in the upper chamber were removed, and cells that invaded onto the lower surface of the membrane were counted from five adjacent fields. […] Data are expressed as the percent invasion through the matrigel matrix and membrane relative to migration through the control membrane. Means and 95% confidence intervals from three independent experiments performed in triplicate are shown. Two-tailed two-sample (unpaired) Student's t-tests were used to determine P values.
Panc-1 and BxPC-3 cells were seeded in BIOCOAT matrigel invasion chambers and in control chambers without matrigel (Becton-Dickinson, Bedford, Mass.) according to the manufacturer's protocol. Panc-1 cells were seeded with S100P (100 nM) with or without cromolyn (100 μM), and BxPC-3 cells were seeded with or without cromolyn (1-100 μM). Briefly, 2.0×10^5 cells in 300 μL top solution (serum-free media) were added to each chamber and allowed to invade matrigel for 24 hours at 37° C. in a 5% CO2 atmosphere. The non-invading cells on the upper surface of membrane were removed from the chambers with a cotton swab, and the invading cells on the lower surface of the membrane were fixed and stained using a Diff-Quick stain kit (Becton Dickinson, Bedford, Mass.). After two washes with water, the chambers were allowed to air dry. The numbers of invading cells in five adjacent microscope fields per membrane were counted at 20× magnification to obtain the average number of cells per field. Data are expressed as the percent invasion through the matrigel matrix and membrane relative to the migration through the control membrane. The assays were performed three times.

[8] = test system: NFκB promoter activity in Panc-1 cells; assay: Luciferase assay for NFκB activity, Panc-1; format: cell-based; settings: for NFκB promoter activity in Panc-1 cells, mean: 5 hours, 0 nM mean=3358
Procedure: FIGS. 3A, 3B, and 3C show the effect of cromolyn on S100P stimulated NFκB promoter activity in pancreatic cancer cells in vitro and in vivo. Panc-1 and BxPC-3 pancreatic cancer cell lines stably expressing an NFκB luciferase reporter were examined for the effects of S100P and cromolyn. […] Means and 95% confidence intervals are shown for three independent experiments performed in triplicate. *, P=0.022, †, P<0.001, and ‡, P<0.001 versus control; #, P=0.005 versus 100 nM S100P alone. […] Means and 95% confidence intervals are shown for three independent experiments performed in triplicate. *, P=0.003, †, P<0.001 versus control. […] After 1 week, tumor growth was assessed and NFκB activity was analyzed using an IVIS system (Xenogen Corp., Alameda, Calif.) after injecting mice with D-luciferin (150 mg per kg body weight) (0 time point). The mice were treated with cromolyn (5 mg per kg body weight by intraperitoneal injection), and NFκB luciferase activity was analyzed again at 24 and 48 hours. *, P=0.005 versus control. Means and 95% confidence intervals are shown for two independent experiments (n=4 mice per group). Two-tailed two-sample (unpaired for in vitro and paired for in vivo studies) Student's t-tests were used to determine P values.
To study pancreatic cancer cell NFκB activity, a lentivirus NFκB luciferase reporter gene construct was developed. The NFκB luciferase reporter gene was excised and isolated from the pNF-κB-Luc Vector (Clonetec, Mountain View, Calif.) and cloned into the lentiviral vector FG9 (Gift from Dr. Xiao-Feng Qin, Dept. of Immunology, M.D. Anderson Cancer Center replacing the CMV/LTR and UBiC promoters, to form Lenti-NFκB-Luc. Lentiviral NFκB vector were co-transfected with packaging constructs pRSVREV, pMDLg/pRRE, and the VSV-G expression plasmid pHCMVG, and lentivirus was produced in 293T cells by the calcium transfection method, as previously described in Qin, et al., Inhibiting HIV-1 infection in human T cells by lentiviral-mediated delivery of small interfering RNA against CCR5; Proc. Natl. Acad. Sci. U.S.A. 2003 Jan. 7; 100(1):183-8. […] Functional validation of NFκB reporter activity was conducted in vitro using TNF-α (20 ng/mL, Sigma, St. Louis, Mo.) as a positive control.
BxPC-3 and Panc-1 cells stably expressing a Lenti-NFkB-luc reporter construct were treated with S100P, cromolyn, or the combination for 5 hours. D-luciferin (150 μg/mL) was added to the cells, and luciferase activity was measured using an IVIS bioluminescence system (Xenogen Co. Alameda, Calif.). Each experiment was conducted three times in triplicate.

Sequence of S100B with RAGE (P04271 whole entry, species assumed): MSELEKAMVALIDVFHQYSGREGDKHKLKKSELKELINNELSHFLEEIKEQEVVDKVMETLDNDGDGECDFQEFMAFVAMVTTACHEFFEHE

Question: With `O=C([O-])c1cc(=O)c2c(OCCCCCOc3cccc4oc(C(=O)[O-])cc(=O)c34)cccc2o1.[Na+].[Na+]` [C5, disodium 1,5-bis(2-carboxychromon-5-yloxy) pentane] as the molecule, how does the “concentration achieving the same level of S100P inhibition” value [1] read?
Answer: 100 nM

Question: What about the “interaction between S100P with RAGE” value [1] of the same molecule?
Answer: blocked

Question: What about the “potency relative to cromolyn in blocking S100P-RAGE interaction” value [1] of the same molecule?
Answer: more potent than cromolyn

Question: And the “NFκB activity in pancreatic cancer cells in vitro” value ([2]; S100P 100 nM, compound 1 μM, 5 hours)?
Answer: inhibit NFκB activity

Question: And the “reduction of S100P induced NFκB activity relative to cromolyn” value ([2]; same dose (1 μM))?
Answer: much better than cromolyn

Question: What about the BxPC-3 cell viability ([3]; 1-100 μM, alone or with gemcitabine 1 μM) of the same molecule?
Answer: inhibit BxPC-3 cell viability

Question: And the “inhibition of BxPC-3 cell viability relative to cromolyn” value ([3]; alone at 10 or 100 μM, with gemcitabine at 1-100 μM)?
Answer: more potent and more efficacious than cromolyn

Question: And the “concentration giving the same level of cell reduction in combination with gemcitabine” value ([3]; with gemcitabine 1 μM)?
Answer: 1 µM

Question: What about the MPanc-96 cell viability [4] of the same molecule?
Answer: inhibit MPanc-96 cell viability

Question: And the “interaction of S100B with RAGE” value [5]?
Answer: inhibit the interaction of S100B with RAGE

Question: For PDGF, which “Panc-1 cell growth, difference control versus PDGF” value ([6]; PDGF 10 ng/mL, 48 hours) is on record?
Answer: 0.2 MTS units

Question: And the “Panc-1 cell growth, mean” value ([6]; PDGF 10 ng/mL, 48 hours, control mean=0.5)?
Answer: 0.7 MTS units

B1: S100P: purified His-tagged full-length human S100P protein, added exogenously as RAGE ligand (protein, UniProt P25815 1-95, looked up)
chain: MTELETAMGMIIDVFSRYSGSEGSTQTLTKGELKVLMEKELPGFLQSGKDKDAVDKLLKDLDANGDAQVDFSEFIVFVAAITSACHKYFEKAGLK
modifications: full-length His tag
notes: purified His-tagged full-length human S100P protein, added exogenously as RAGE ligand
Question: Which “Panc-1 cell proliferation, mean” value ([6]; S100P 100 nM alone) does the source give for B1 here?
Answer: 0.93 MTS units

Question: And the “Panc-1 cells invaded, mean” value [7]?
Answer: 58.0%

Question: And the “NFκB promoter activity in Panc-1 cells, difference versus 0 nM” value ([8]; S100P 1 nM)?
Answer: 3544 photons/sec

Question: What about the “NFκB promoter activity in Panc-1 cells, mean” value (“NFκB promoter activity … mean” below) ([8]; S100P 1 nM) of the same molecule?
Answer: 6902 photons/sec

Question: What about the “NFκB promoter activity in Panc-1 cells, difference versus 0 nM” value ([8]; S100P 10 nM) of the same molecule?
Answer: 5400 photons/sec

Question: And the “NFκB promoter activity … mean” value ([8]; S100P 10 nM)?
Answer: 8758 photons/sec

Question: What about the “NFκB promoter activity in Panc-1 cells, difference versus 0 nM” value ([8]; S100P 100 nM) of the same molecule?
Answer: 11100 photons/sec

Question: And the “NFκB promoter activity … mean” value ([8]; S100P 100 nM)?
Answer: 14460 photons/sec
